Consider 66 molecules from ChEMBL document CHEMBL3988442, “University of Dundee, Small-Polar-MMV Screening Library” (2021).

What is called pIC50 is the negative decadic logarithm of the IC50, by convention in mol/L. A high value points to a low IC50.

Structures are written as SMILES. Where “and” joins values, the source holds several entries; their conditions need not be identical. Equal entries are not always repeated.

Test [1] concerns Mycobacterium tuberculosis. Description: Cornell M. t heat shock assay. The class given is functional, organism-based. Particulars: for IC50: Mycobacterium tuberculosis.
Test [2] can be described thus: microbe, parasite or virus in culture. Particulars: Mycobacterium tuberculosis, 96 h, read-out: pIC50 (converted).
The nature of test [3]: microbe, parasite or virus in culture. The conditions noted are these: Mycobacterium tuberculosis, 72 h, read-out: pIC50 (converted).
Test [4] is described as follows: In vitro enzyme assay to detect hydrolysis of chlorophenol red-beta-D-[…] directly proportional to the number of Toxoplasma stably expressing beta-galactosidase. The class given is functional, organism-based, Toxoplasma gondii. The conditions noted are these: for IC50: Toxoplasma gondii.
The target in another test is ClpP1P2 (Mycobacterium tuberculosis (strain ATCC 25618 / H37Rv), UniProt P9WPC3+P9WPC5). Put plainly: in vitro assay to detect presence of AMC directly proportional to the activity of ClpP1P2. GHDDI collaboration. It is filed as functional.
The subject of the next test is Plasmodium falciparum. Description: Calibr Malaria Delayed Death Assay SOP. It is filed as functional, organism-based. Particulars: for IC50: Plasmodium falciparum.

ClpP1P2, sequence (P9WPC5 whole entry): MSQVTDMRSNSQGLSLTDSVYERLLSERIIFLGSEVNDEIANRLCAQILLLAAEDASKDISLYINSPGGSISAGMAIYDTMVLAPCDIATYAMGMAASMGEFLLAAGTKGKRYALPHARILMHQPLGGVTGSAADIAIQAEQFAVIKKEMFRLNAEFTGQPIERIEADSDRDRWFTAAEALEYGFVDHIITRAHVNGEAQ
ClpP1P2, sequence (P9WPC3 whole entry): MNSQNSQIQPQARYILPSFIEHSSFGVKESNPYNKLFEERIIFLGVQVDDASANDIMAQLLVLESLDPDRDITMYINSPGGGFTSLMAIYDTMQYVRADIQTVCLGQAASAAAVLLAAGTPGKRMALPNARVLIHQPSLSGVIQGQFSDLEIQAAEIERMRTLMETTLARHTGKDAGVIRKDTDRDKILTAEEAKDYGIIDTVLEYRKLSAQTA

As to `O=C(NCCc1cccc(F)c1)C1(n2cnnn2)CCCCC1`, the results for the IC50 in test [1], in test [2] and in test [3] were 11.1 µM, 43.2 µM and 46.9 µM, respectively.
The matching figures for `Cc1cc(C(=O)N2CCN(c3nc4c(C(C)C)cccc4s3)CC2)no1`: 57.9 µM, 42.6 µM and more than 50.1 µM.
With `Cc1nc(-n2nc(C3CC3)cc2NC(=O)C(C)C)[nH]c(=O)c1C`, the negative logarithm of the IC50 (pIC50) in test [4] worked out at 5.686. Also, the IC50 was 3.09 µM in test [4], 7.58 µM in test [1], 14.2 µM in test [2] and 10.2 µM in test [3].
Consider `Cc1ccc(S(=O)(=O)NCCc2ccoc2)s1`, for which the IC50 is 31 µM in test [1], 46.2 µM in test [2] and 38 µM in test [3].
Turning to `CCN(CC)c1nc(Nc2cccc(C(C)O)c2)nc2ccccc12` (stereo not given), in test [4], the negative-log IC50 (pIC50) was found to be 5.586. The IC50 was 2.08 µM in test [4]; 12.2 µM in test [1]; more than 100 µM at ClpP1P2; 22.9 µM in test [2]; 25.7 µM in test [3].
On to `Cc1cc2c(cc1Cl)C=CC1(CCN(CC(=O)NC3CCCC3)CC1)O2`, for which the IC50 in test [1] was 49.9 µM; in test [2], more than 50.1 µM; in test [3], 45.4 µM.
On to `c1cnc(N2CCC(c3csc(Nc4cnccn4)n3)CC2)nc1`, for which the IC50 was 0.0108 µM with Plasmodium falciparum and more than 100 µM in test [1].
`Fc1ccccc1CN1CCC[C@@H](Cn2nnc(-c3cccs3)n2)C1`: the IC50 is more than 100 µM in test [1], 33.3 µM in test [2] and 16.9 µM in test [3].
As to `Oc1cc(C2CCCCN2Cc2cccs2)nc(-c2ccccn2)n1` (stereo not given), the figures for the IC50 in test [4] and in test [1] were 2.42 µM and 17.3 µM, respectively.
As to `CC(C)C[C@H](N)COc1cccc(F)c1Oc1cccc(Cl)c1`, the IC50 in test [1] was 13.9 µM; at ClpP1P2 it was more than 100 µM; in test [2], 22.6 µM; in test [3] it was 18.5 µM.
Regarding `CC(C)C[C@H](N)COc1cccc(F)c1Oc1ccc(Cl)cc1`, the IC50 in test [1] was 20.5 µM; in test [2], 21 µM; in test [3], 17.6 µM.
In turn, `COc1cccc(OC)c1CNC(Cc1ccsc1)c1ccc(C)cn1` (stereo not given) had a negative logarithm of the IC50 (pIC50) with Plasmodium falciparum of 5.969. Moreover, the IC50 was 1.09 µM in the test with Plasmodium falciparum, 27 µM in test [1], 12.5 µM in test [2] and 16.4 µM in test [3].
Regarding `COc1ccc(CNC(Cc2ccsc2)c2ccc(C)cn2)c(OC)c1` (stereo not given), the IC50 in test [1] was 17.9 µM; in test [2], more than 50.1 µM; in test [3], 48.5 µM.
On to `CCn1ccc(-c2cc(NCCCOc3cccc(C)c3)nc(C)n2)n1`, for which the pIC50 in test [1] came out at 4.417. The IC50 is 55.1 µM in test [1], 18.9 µM in test [2] and 30.2 µM in test [3].
Regarding `Nc1cc(N2CCOCC(Cc3ccc4[nH]ccc4c3)C2)ncn1` (stereo not given), the negative logarithm of the IC50 (pIC50) in test [1] is < 4 and < 4.31. Besides, the IC50 in test [2] was 13.4 µM; in test [3] it was 28.8 µM.
Molecule `CN1CCCCC1c1ncc2c(n1)CCN(CCCc1ccccc1)C2` (stereo not given) displayed a pIC50 in test [1] of 4.46. Further, the results for the IC50 in test [1], in test [2] and in test [3] were 39.4 µM, 41.2 µM and 44.5 µM, respectively.
With `CN1CCCCC1c1ncc2c(n1)CCN(Cc1ccc(Cl)c(F)c1)C2` (stereo not given), in the test with Plasmodium falciparum, the negative-log IC50 (pIC50) is listed as 5.794 and the IC50 is 1.55 µM. In addition, in test [1], the negative logarithm of the IC50 (pIC50) is listed as 4.295 and the IC50 is 50.6 µM.
In test [4], `Cn1c(CCN2CCN(c3ccc(O)cc3)CC2)nc2ccccc21` showed a pIC50 of 4.61 and an IC50 of 23.8 µM. Further, the IC50 in test [1] was 68.5 µM.
As to `CCSCCNc1cc(C)nc2c(C)c(C)nn12`, the IC50 in test [1] is 23.5 µM; in test [2] it was 7.02 µM; in test [3], 5.48 µM.
As for `CC1(c2ccccc2)CCCN(Cc2cncn2C2CCCC2)C1` (stereo not given), the IC50 in test [4] was 4.15 µM; in test [1], 14.4 µM; in test [2] it was 18.5 µM; in test [3], 20.4 µM.
For the molecule `CC(C)Cc1ncc2c(n1)CN(c1nccc(NC(C)C)n1)C2`, the IC50 is 34.5 µM in test [1], 15.5 µM in test [2] and 23.9 µM in test [3].
The matching figures for `O[C@@H]1CN(CC2=Cc3cc(Cl)ccc3OC2)CC[C@H]1N1CCCCCC1`: 52.7 µM, 46.9 µM and 49.3 µM.
The molecule `CCCn1cc(-c2ccnc(NC3CCCc4ccccc43)n2)c(C)n1` (stereo not given) gave an IC50 in test [1] of 21.4 µM.
The molecule `COc1cccc(S(=O)(=O)NC(=O)CCC2CCCC2)c1` gave an IC50 in test [1] of more than 100 µM.
In test [1], `Cc1noc(NC(=O)c2cccc(Br)c2)n1` showed a pIC50 of 4.54. Also, the results for the IC50 in test [1], in test [2] and in test [3] were 16 µM, 41.8 µM and 46.3 µM, respectively.
As for `CCOc1ncccc1NC(=O)N1CCN(c2ccc(O)cc2)CC1`, in test [1], the IC50 was more than 100 µM.
Same read-out and setting: in the case of `Cc1ccc(C(C)N(C)Cc2nc3c(cnn3C)c(=O)[nH]2)s1` (stereo not given) it was more than 100 µM.
The same measure, in the same setting: then `COc1ccccc1C(C)N(C)Cc1nc2c(cnn2C)c(=O)[nH]1` (stereo not given), with more than 100 µM; and `Cc1ccc(C2CCCN2S(=O)(=O)N(C)CCc2ccccn2)o1` (stereo not given), with more than 100 µM; and `c1ccc2nc(CN3CCCC3c3noc(C4CC4)n3)ccc2c1` (stereo not given), with 23.8 µM.
Take `Cn1ccnc1C(NCc1ccc(Br)cc1)c1ccccc1` (stereo not given): the IC50 in test [1] is 17.7 µM.
Same read-out and setting: then `COc1cccc(C(NCc2ccc(SC)cc2)c2nccn2C)c1` (stereo not given), with 6.39 µM; and `COc1ccccc1C(NCc1ccc(SC)cc1)c1nccn1C` (stereo not given), with 48.8 µM.
On the same count and under the same terms, then `CSc1ccc(CNC(c2ccc(F)cc2)c2nccn2C)cc1` (stereo not given), with 32.5 µM.
On the same count and under the same terms, then `Cn1ccnc1C(NCc1ccccc1)c1ccc(F)cc1` (stereo not given), with more than 100 µM.
For the molecule `COc1cc(CNC(c2ccccc2)c2nccn2C)cc(OC)c1` (stereo not given), in test [1], the IC50 is 2.41 µM.
On the same count and under the same terms, in the case of `Cc1cc(C)cc(CNC(c2ccccc2)c2nccn2C)c1` (stereo not given) it was 4.29 µM.
On the same count and under the same terms, then `CCC(=O)N1CCN(C(=O)Cn2cccn2)CC1`, with 22.2 µM.
As to `Cc1cccc(CN2CCN(C(=O)c3cc(C4CC4)[nH]n3)CC2)c1`, the IC50 in test [1] was 77.1 µM; in test [2], 25 µM; in test [3], 25.8 µM.
As for `CCCNC(=O)NC(=O)CNC(C)(C)c1ccc2c(c1)OCCO2`, the IC50 in test [1] was 23.5 µM; in test [2], 13.3 µM; in test [3], 19 µM.
In test [1], `Cc1cnn(CC2CCCN2Cc2nc(C)c3ccccc3n2)c1` (stereo not given) showed an IC50 of 34.9 µM.
In the case of `Cc1cnn(CC2CCCN2Cc2nc3ccccc3c(=O)[nH]2)c1` (stereo not given), in test [1], the IC50 was 17.9 µM.
In test [1], `O=c1[nH]c(CCN2CCCC2Cn2cncn2)nc2ccccc12` (stereo not given) showed an IC50 of 34.3 µM.
For the molecule `O=c1[nH]c(CCN2CCCC2Cn2cccn2)nc2ccccc12` (stereo not given), the IC50 in test [1] is 47.5 µM.
`CC(C)c1ncc2c(n1)CN(Cc1noc(-c3ccccc3)n1)CC2`: the IC50 in test [1] was 36.9 µM; on ClpP1P2, more than 100 µM.
In test [1], `CC(C)c1ncc2c(n1)CN(CCCc1nc3ccccc3o1)CC2` gave an IC50 of more than 100 µM.
In test [1], `NC(=O)NC(=O)CCN1CCN(c2nccs2)CC1` gave an IC50 of 35.1 µM.
The same measure, in the same setting: in the case of `CC(Cn1cccn1)NCc1csc(COc2ccc(F)cc2)n1` (stereo not given) it was 17.2 µM; in that of `CC(C)C1CCCN1CCCc1nc(-c2cccs2)no1` (stereo not given), more than 100 µM; in that of `c1ccc(-c2nc(CN3CCCC(Cn4cncn4)C3)cs2)cc1` (stereo not given), 54.6 µM.
Same read-out and setting: then `O=C(Cc1c[nH]c2ccccc12)N1CCC(Nc2ccccc2)CC1`, with more than 100 µM.
Same read-out and setting: in the case of `CC(C)Oc1ncccc1CNC(=O)c1ccccn1` it was more than 100 µM; in that of `O=C(c1cc2cc(I)ccc2[nH]1)N1CCC(Nc2cccnn2)CC1`, 48.7 µM.
Take `Cc1ncc(CNCCO)c2cc(C(=O)c3ccc(Br)cc3)oc12.Cl`: the IC50 was 9.37 µM in test [4], 0.541 µM in the test on Plasmodium falciparum and more than 49 µM in test [1]. Further, the negative-log IC50 (pIC50) in the test with Plasmodium falciparum amounted to 6.356.
For the molecule `CC(C)N(C(=O)Cn1c(-c2ccco2)cc2cccnc21)C(C)C`, the IC50 (in test [1]; at ClpP1P2) was more than 100 µM in each case.
Turning to `Cc1csc(C(Cc2ccsc2)NC(=O)CN(C)Cc2ccccn2)n1` (stereo not given), the IC50 (in test [1]; at ClpP1P2) was more than 100 µM each time.
For the molecule `CN(C)[C@@H]1CN(Cc2ccccc2O)C[C@H]1c1cn(C)c2ccccc12`, the figures for the IC50 (in test [1]; on ClpP1P2) were 28.3 µM and more than 100 µM, respectively.
With `Cl.Clc1cccc(N[C@H]2CCCN[C@H]2Cc2ccccc2)c1`, the pIC50 with Plasmodium falciparum is recorded as 6.045. Also, the IC50 with Plasmodium falciparum is 0.981 µM; in test [1], 7.22 µM; in test [2] it was 17 µM; in test [3], 8.59 µM.
Consider `Cc1cccc(CNC(Cc2ccsc2)c2nc(C)c(C)s2)n1.Cl` (stereo not given), for which the negative logarithm of the IC50 (pIC50) in test [1] worked out at 5.24. The IC50 in test [1] is 8.25 µM; at ClpP1P2, more than 100 µM; in test [2], more than 50.1 µM; in test [3], 31.7 µM.
Regarding `CSc1ccc(CNC(c2ccccc2F)c2nccn2C)cc1` (stereo not given), the IC50 in test [1] was 16.4 µM.
For `Cc1ccc(CNC(c2ccccc2)c2nccn2C)cc1` (stereo not given), the IC50 in test [1] was 19.9 µM.
`COc1ccc(CCNCc2c(C)nn(C)c2N(C)C)cc1OC` had an IC50 in test [1] of more than 100 µM.
Turning to `Clc1cccc(C[C@@H]2NCCC[C@@H]2Nc2cccc(Cl)c2)c1`, the IC50 in test [1] is 5.94 µM; in test [2], 9.04 µM; in test [3], 6.67 µM.
In test [4], `O=C(CN1CC(c2nc(C3CC3)no2)C1)N1CCOCC1.O=C(O)C(=O)O` had a pIC50 of 5.075 and an IC50 of 5.21 µM. Also, in test [1], the IC50 is more than 100 µM.
Turning to `Cc1ccc(CN(CCCn2ccnc2)Cc2cc(F)ccc2F)s1.O=C(O)CC(O)(CC(=O)O)C(=O)O`, the IC50 in test [4] is 7.16 µM. Besides, in test [1], the negative-log IC50 (pIC50) was 4.62 and the IC50 was 18.9 µM.
On to `COc1ccc(F)c(CN(CCCn2ccnc2)Cc2ccc(C)s2)c1.O=C(O)CC(O)(CC(=O)O)C(=O)O`, for which the IC50 in test [4] was 7.3 µM. In addition, in test [1], the negative-log IC50 (pIC50) was 4.599 and the IC50 was 27.4 µM.
